Format in all cases: functional
Test [1] relates to Escherichia coli. Kind of test: […] against Escherichia coli Juhl (100 X LD50) (s.c. administration); Range is between(0.2-0.5). Conditions: sc.
In a further test the test system is Klebsiella aerogenes. Kind of test: In vitro antibacterial activity against Enterobacter aerogenes ATCC 13048.
For test [2], the system named is Escherichia coli. Kind of test: In vitro antibacterial activity against Escherichia coli Juhl.
The next test relates to Klebsiella pneumoniae. The test is described as follows: In vitro antibacterial activity against Klebsiella pneumoniae 8045.
Test [3] concerns Pseudomonas aeruginosa. The test is described as follows: FIn vitro antibacterial activity against Pseudomonas aeruginosa K799/WT.
Test [4] has as its system Staphylococcus epidermidis. The test is described as follows: In vitro antibacterial activity against Staphylococcus epidermis 3519.
The test system of a further test is Streptococcus pyogenes. The test is described as follows: In vitro antibacterial activity against Streptococcus pyogenes 930.
The subject of test [5] is Staphylococcus aureus. The test is described as follows: In vitro antibacterial activity against Staphylococcus aureus CMX 686B.
Test [6] concerns Staphylococcus aureus. The test is described as follows: In vitro antibacterial activity against Staphylococcus aureus ATCC 6538P.
The subject of another test is Enterococcus faecium. The test is described as follows: In vitro antibacterial activity against Streptococcus faecium ATCC 8043.
Another test concerns Acinetobacter. Kind of test: In vitro antibacterial activity against Acinetobacter CMX 669.
Test [7] has as its system Pseudomonas aeruginosa. The test is described as follows: In vitro antibacterial activity against Pseudomonas aeruginosa 5007.
Test [8] relates to Pseudomonas aeruginosa. Kind of test: In vitro antibacterial activity against Pseudomonas aeruginosa K799/WT.
The test system of test [9] is Escherichia coli. The test is described as follows: Compound was evaluated in vivo for antibacterial activity against Escherichia coli Juhl (100 X LD50) (p.o. administration); Range is between (2.8-6.5). The settings on record: po.
The subject of test [10] is Escherichia coli. Kind of test: Compound was evaluated in vivo for antibacterial activity against Escherichia coli Juhl (100 X LD50) (s.c. administration); Range is between (0.3-1.3). Conditions: sc.
The test system of test [11] is Escherichia coli. The test is described as follows: Compound was evaluated in vivo for antibacterial activity against Escherichia coli Juhl (100 X LD50) (p.o. administration); Range is between (3.8-11.2).
The test system of test [12] is Pseudomonas aeruginosa. Kind of test: Compound was evaluated in vivo for antibacterial activity against Pseudomonas aeruginosa 5007 (100 X LD50) (s.c. administration); Range is between (1.0-2.5). The settings on record: sc.
In test [13] the test system is Pseudomonas aeruginosa. The test is described as follows: Compound was evaluated in vivo for antibacterial activity against Pseudomonas aeruginosa 5007 (100 X LD50);.
Test [14] deals with Staphylococcus aureus. Kind of test: Compound was evaluated in vivo for antibacterial activity against Staphylococcus aureus NCTC 10649 (100 X LD50) (s.c. administration); Range is between (1.0-2.5). Conditions: sc.
Test [15] deals with Pseudomonas aeruginosa. Kind of test: Compound was evaluated in vivo for antibacterial activity against Pseudomonas aeruginosa 5007 (100 X LD50) (p.o. administration); Range is between (13.4-34.4). Conditions: po.
Test [16] concerns Escherichia coli. The test is described as follows: […] against Escherichia coli Juhl (100 X LD50) (s.c. administration); Range is between(1.0-1.8).
Test [17] concerns Escherichia coli. Kind of test: […] against Escherichia coli Juhl (100 X LD50) (p.o. administration );Range is between (2.2-7.0).
The subject of test [18] is Escherichia coli. The test is described as follows: […] against Escherichia coli Juhl (100 X LD50) (s.c. administration );Range is between (1.6-3.9).
Test [19] deals with Pseudomonas aeruginosa. Kind of test: […] against Pseudomonas aeruginosa 5007 (100 X LD50) (peroral administration );Range is between (17.7-44.1).
Test [20] concerns Pseudomonas aeruginosa. The test is described as follows: […] against Pseudomonas aeruginosa 5007 (100 X LD50) (subcutaneous administration );Range is between (6.6-16.2).
Test [21] deals with Staphylococcus aureus. Kind of test: In vitro mouse protection test against Staphylococcus aureus NCTC 10649 (100 X LD50) (s.c. administration );Range is between (2.6-5.4). The settings on record: sc.
The subject of test [22] is Staphylococcus aureus. Kind of test: […] against Staphylococcus aureus NCTC 10649 (100 X LD50),(peroral administration); Range is between (3.7-10.2). Conditions: po.

The source of these data is ChEMBL document CHEMBL1123847, “Synthesis and structure-activity relationship of 1-aryl-6,8-difluoroquinolone antibacterial agents” (1987).

Values after ≈ are worked out from the molar mass of the structure shown.

In the test on Escherichia coli [1], `O=C(O)c1cn(-c2ccc(F)cc2F)c2c(F)c(N3CCNCC3)c(F)cc2c1=O` yielded an ED50 of 0.3 mg/kg. The MIC against Klebsiella aerogenes was 0.2 µg/mL (≈ 0.475 µM); in the test on Escherichia coli [2], 0.05 µg/mL (≈ 0.119 µM); with Klebsiella pneumoniae, 0.05 µg/mL (≈ 0.119 µM); in the test with Pseudomonas aeruginosa [3], 0.78 µg/mL (≈ 1.85 µM); in test [4], 0.78 µg/mL (≈ 1.85 µM); with Streptococcus pyogenes it was 1.56 µg/mL (≈ 3.7 µM). Further, the minimal inhibitory concentration (MIC) with Staphylococcus aureus [5] came out at 0.39 µg/mL (≈ 0.926 µM); against Staphylococcus aureus [6], 0.39 µg/mL (≈ 0.926 µM); against Enterococcus faecium, 1.56 µg/mL (≈ 3.7 µM); against Acinetobacter it was 0.39 µg/mL (≈ 0.926 µM); against Pseudomonas aeruginosa [7], 0.78 µg/mL (≈ 1.85 µM).

With `NC1CCN(c2c(F)cc3c(=O)c(C(=O)O)cn(-c4ccc(F)cc4)c3c2F)C1` (stereo not given), the MIC with Klebsiella aerogenes came out at 0.2 µg/mL (≈ 0.496 µM); in the test with Escherichia coli [2], 0.2 µg/mL (≈ 0.496 µM); against Klebsiella pneumoniae, 0.05 µg/mL (≈ 0.124 µM); in the test on Pseudomonas aeruginosa [8] it was 1.56 µg/mL (≈ 3.87 µM); in test [4], 0.39 µg/mL (≈ 0.967 µM); in the test on Streptococcus pyogenes it was 1.56 µg/mL (≈ 3.87 µM). Further, the minimal inhibitory concentration (MIC) against Staphylococcus aureus [5] came out at 0.2 µg/mL (≈ 0.496 µM); in the test with Staphylococcus aureus [6] it was 0.2 µg/mL (≈ 0.496 µM); in the test on Enterococcus faecium, 3.1 µg/mL (≈ 7.69 µM); in the test on Acinetobacter it was 0.78 µg/mL (≈ 1.93 µM); in the test with Pseudomonas aeruginosa [7] it was 3.1 µg/mL (≈ 7.69 µM).

`Cl.O=C(O)c1cn(-c2ccc(F)cc2)c2cc(N3CCNCC3)c(F)cc2c1=O` [SARAFLOXACIN HYDROCHLORIDE]: the ED50 with Escherichia coli [9] is 4.3 mg/kg; in the test on Escherichia coli [10], 0.6 mg/kg; in the test with Pseudomonas aeruginosa [12], 1.6 mg/kg; in the test with Staphylococcus aureus [14], 1.6 mg/kg; in the test with Pseudomonas aeruginosa [15], 21.4 mg/kg. The minimal inhibitory concentration (MIC) amounted to 0.2 µg/mL in the test on Klebsiella aerogenes; 0.05 µg/mL in the test with Escherichia coli [2]; 0.02 µg/mL with Klebsiella pneumoniae; 0.39 µg/mL with Pseudomonas aeruginosa [8]; 0.39 µg/mL against Pseudomonas aeruginosa [13]; 0.39 µg/mL in [4]. Besides, the minimal inhibitory concentration (MIC) worked out at 0.78 µg/mL with Streptococcus pyogenes; 0.2 µg/mL with Staphylococcus aureus [5]; 0.2 µg/mL in the test on Staphylococcus aureus [6]; 1.56 µg/mL in the test on Enterococcus faecium; 0.2 µg/mL in the test with Acinetobacter; 0.39 µg/mL with Pseudomonas aeruginosa [7]. In addition, the ED50 mg/kg with Escherichia coli [11] is 6.5.

Take `CN1CCN(c2c(F)cc3c(=O)c(C(=O)O)cn(-c4ccc(F)cc4)c3c2F)CC1`: the MIC in the test on Klebsiella aerogenes is 0.78 µg/mL (≈ 1.87 µM); with Escherichia coli [2] it was 0.39 µg/mL (≈ 0.934 µM); in the test on Klebsiella pneumoniae, 0.39 µg/mL (≈ 0.934 µM); with Pseudomonas aeruginosa [8], 3.1 µg/mL (≈ 7.43 µM); in test [4] it was 0.78 µg/mL (≈ 1.87 µM); in the test with Streptococcus pyogenes, 3.1 µg/mL (≈ 7.43 µM). For the same compound, the MIC against Staphylococcus aureus [5] came to 0.39 µg/mL (≈ 0.934 µM); against Staphylococcus aureus [6] it was 0.39 µg/mL (≈ 0.934 µM); against Enterococcus faecium, 3.1 µg/mL (≈ 7.43 µM); against Acinetobacter it was 0.39 µg/mL (≈ 0.934 µM); against Pseudomonas aeruginosa [7], 3.1 µg/mL (≈ 7.43 µM). This compound also had an ED50 mg/kg in the test with Escherichia coli [16] of 1.3.

In the case of `CN1CCN(c2c(F)cc3c(=O)c(C(=O)O)cn(-c4ccc(F)cc4F)c3c2F)CC1`, the MIC with Klebsiella aerogenes was found to be 0.39 µg/mL (≈ 0.896 µM); in the test with Escherichia coli [2] it was 0.39 µg/mL (≈ 0.896 µM); against Klebsiella pneumoniae, 0.2 µg/mL (≈ 0.459 µM); against Pseudomonas aeruginosa [8], 1.56 µg/mL (≈ 3.58 µM); in test [4], 0.78 µg/mL (≈ 1.79 µM); in the test with Streptococcus pyogenes, 3.1 µg/mL (≈ 7.12 µM). Also, the MIC was 0.39 µg/mL (≈ 0.896 µM) with Staphylococcus aureus [5]; 0.39 µg/mL (≈ 0.896 µM) against Staphylococcus aureus [6]; 6.2 µg/mL (≈ 14.2 µM) in the test with Enterococcus faecium; 0.39 µg/mL (≈ 0.896 µM) in the test on Acinetobacter; 3.1 µg/mL (≈ 7.12 µM) against Pseudomonas aeruginosa [7]. For the same compound, the ED50 mg/kg with Escherichia coli [17] came to 3.9; in the test with Escherichia coli [18], 2.5; in the test on Pseudomonas aeruginosa [19] it was 27.9; with Pseudomonas aeruginosa [20], 10.3. For the same compound, the ED50 worked out at 3.7 mg/kg in the test with Staphylococcus aureus [21] and 6.1 mg/kg in the test on Staphylococcus aureus [22].

One may read the ED50 as the dose that gives a 50% effect, or the effect in half of the subjects. Higher therefore signals weaker potency. The MIC is the least concentration at which growth counts as inhibited. Read a low MIC as a more susceptible organism.
